Data from patent US10647680B2, “Urea compound, preparation method therefor and medical use thereof” (Ancureall Pharmaceutical (Shanghai) Co., Ltd., priority 2016, dated 2020).

Key:
[1] = tested on: K562 (FLT3 negative expression, positive expression of BCR-ABL fusion protein); test: In vitro growth inhibition (GI50), K562; format: cell-based; details: Homo sapiens, Cell lines of leukemia, read-out: GI 50 K562 BCR-ABL
Text: (§1) 1. Cell Lines and Cell Cultures
(§2) Tumor cell line is an effective cell model for studying the inhibition of tumor cell growth or proliferation in vitro. In the present invention, a representative tumor cell line was selected to determine the cell growth inhibition activity of the present compound. All cell lines used were from ATCC, DSMZ, and the Cell Bank of the Chinese Academy of Sciences. Cell culture conditions and methods were in accordance with the requirements of each cell line. Cells were subcultured in vitro for no more than 3 passages each time, and as required, single-clone purification and identification of cell lines could be carried out.
(§3) The cell culture media used were RPMI1640 (Gibco), MEM (Gibco), McCOY'S5A (Gibco), and IMDM (Gibco). The complete medium was prepared by supplement with 5˜20% fetal calf serum (Gibco), 1% double-antibiotics (10000 units/mL penicillin and 10000 units/mL), 2 mM glutamine or 1 mM sodium pyruvate, respectively.
(§4) The human acute […] monomonocyte leukemia cell line MV4-11 (FLT3 ITD+/+ mutant type, ATCC) was cultured in a complete medium comprising 1×IMDM and 10% FBS. Human acute myeloid leukemia cell line MOLM-13 (FLT3 ITD+/− mutant type, DSMZ), human acute lymphoblastic leukemia cell line RS4; 11 (FLT3 wild type, ATCC), human chronic granulocytic leukemia cell line K562 (FLT3 negative expression, positive expression of BCR-ABL fusion protein, ATCC), human promyelocytic leukemia cell line HL-60 (FLT3 wild type, ATCC), human B lymphoblastic leukemia cell line RAMOS (positive expression of Brutons tyrosine protein kinase, ATCC), human acute myeloid leukemia cell line Kasumi-1 (c-Kit N822K mutant type, ATCC), human acute monocytic leukemia cell line U937 (FLT3 wild-type, ATCC), human acute myeloid leukemia cell line OCI-AML3 (NPMc+ mutant type, ATCC), human acute myeloid leukemia cell line KG-1 (expressing FGFR1OP2-FGFR1 fusion protein, ATCC) were cultured in a complete medium comprising 1×RPMI1640 and 10% FBS, respectively.
(§5) The suspension cells were collected by centrifugation. The supernatant was discarded and the cell pellet was resuspended and counted. Different cell concentrations (5˜10×10^4 cells/mL) were prepared according to the growth cycle of each cell line and then seeded on a 96-well plate (Corning), 100 μL/well. The cells were incubated overnight at 37° C., 5% CO2. The compounds were added to the cells on the second day with 2 wells in parallel. The final concentration of organic solvent shall not exceed 1%. The cells were continually incubated for 3 to 5 days, and then subjected to MTT assay.
(§6) The compound was stored in a concentration of 10 mM at −20° C. and diluted to 2- or 10-fold series prior to use.
(§7) Dojindo CCK8 reagent kit was used as MTT assay. […] FC meter was used as microplate reader.
(§8) For adherent cells, culture medium was removed and immediately replaced with the fresh prepared medium which contains 10% CCK8 reagent (100 μL/well). For the suspension cells, CCK8 was directly added to 10% of the final concentration. The cells were continually incubated for 1˜4 h. […] The experiment was independently repeated 1˜3 times, and subject to biological statistical analysis. 4. Experimental Results
(§9) The initial concentration of the compound was 5,000 nM, then it was serially diluted by 2-fold or 10-fold to 0.01 nM. The GI50 value of each test compound was calculated according to the GI50 assay and calculation method. The experiments were repeated 1 to 3 times, and data were subjected to biological statistical analysis.

RS4; 11 (FLT3 wild type) = test: In vitro growth inhibition (GI50), RS4; 11; format: cell-based, human; details: Homo sapiens, RS4-11; Cell lines of leukemia; read-out: GI 50 RS4: 11 FLT3 (WT)
Text: as §1, §2, §3, §4, §5, §6, §7, §8, §9

[2] = tested on: MV4-11 (FLT3 ITD+/+ mutant type); test: In vitro growth inhibition (GI50), MV4-11; format: cell-based, human; details: Homo sapiens, MV4-11; Cell lines of leukemia; read-out: GI 50 MV4-11 FLT3 (ITD +/+)
Text: as §1, §2, §3, §4, §5, §6, §7, §8, §9

U937 (FLT3 wild-type) = test: In vitro growth inhibition (GI50), U937; format: cell-based; details: Homo sapiens, U-937; Cell lines of leukemia; read-out: GI 50 U937 FLT 3(WT)
Text: as §1, §2, §3, §4, §5, §6, §7, §8, §9

[3] = tested on: MOLM-13 (FLT3 ITD+/− mutant type); test: In vitro growth inhibition (GI50), MOLM-13; format: cell-based, human; details: Homo sapiens, MOLM-13; Cell lines of leukemia; read-out: GI 50 MOLM-13 FLT3 (ITD+/−)
Text: as §1, §2, §3, §4, §5, §6, §7, §8, §9

HL-60 (FLT3 wild type) = test: In vitro growth inhibition (GI50), HL-60; format: cell-based; details: Homo sapiens, Cell lines of leukemia, read-out: GI 50 HL60 FLT3 (WT)
Text: as §1, §2, §3, §4
as §5, with “Adherent cells were digested with 0.25% pancreatin-EDTA (Gibco). The suspension” for “The suspension”
(§10) The compound of the present invention and the control compound were dissolved in DMSO (Sigma) respectively, with the purity of more than 98%. The compound was stored in a concentration of 10 mM at −20° C. and diluted to 2- or 10-fold series prior to use.
(§11) Dojindo CCK8 reagent kit was used as MTT assay. THERMO […] FC meter was used as microplate reader.
(§12) For adherent cells, culture medium was removed and immediately replaced with the fresh prepared medium which contains 10% CCK8 reagent (100 μL/well). For the suspension cells, CCK8 was directly added to 10% of the final concentration. The cells were continually incubated for 1˜4 h. When a dark yellow color could be observed in the solvent control wells, the absorbance value at OD450 nm was measured and the cell growth rate was calculated according to the following formula: Cell Growth Rate (%)=100*(T−T0)/(C−T0) T=optical density of drug treatment cell well—optical density of blank control well; T0=optical density of cell well before drug treatment—optical density of blank control well; C=optical density of cell well of solvent control group—optical density of blank control well. The concentration value of 50% inhibition of cell growth (GI50) was calculated according to the drug concentration and cell growth rate curve. […]

[4] = tested on: OCI-AML3 (NPMc+ mutant type); test: In vitro growth inhibition (GI50), OCI-AML3; format: cell-based; details: Homo sapiens, OCI-AML-3; Cell lines of leukemia; read-out: GI 50 OCI- AML3 NPMc+
Text: as §1, §2, §3, §4, §5, §6, §7, §8, §9

[5] = tested on: RAMOS (positive expression of Brutons tyrosine protein kinase); test: In vitro growth inhibition (GI50), RAMOS; format: cell-based; details: Homo sapiens, Cell lines of leukemia, read-out: GI 50 Ramos BTK
Text: as §1, §2, §3, §4, §5, §6, §7, §8, §9

[6] = tested on: KG-1 (expressing FGFR1OP2-FGFR1 fusion protein); test: In vitro growth inhibition (GI50), KG-1; format: cell-based; details: Homo sapiens; Cell lines of leukemia; read-out: GI 50 KG-1 FGFR1OP 2-FGFR1
Text: as §1, §2, §3, §4, §5, §6, §7, §8, §9

[7] = tested on: Kasumi-1 (c-Kit N822K mutant type); test: In vitro growth inhibition (GI50), Kasumi-1; format: cell-based; details: Homo sapiens, Cell lines of leukemia, read-out: GI 50 Kasumi-1 Kit (N822K)
Text: as §1, §2, §3, §4
as §5, with “Adherent cells were digested with 0.25% pancreatin-EDTA (Gibco). The suspension” for “The suspension”
as §10, §11, §12

Row | Compound | GI50 [1] | GI50 (RS4; 11 (FLT3 wild type)) | GI50 [2] | GI50 (U937 (FLT3 wild-type)) | GI50 [3] | GI50 (HL-60 (FLT3 wild type)) | GI50 [4] | GI50 [5] | GI50 [6] | GI50 [7]
1 | CN(C)CCOc1ccc2c(c1)ncn2-c1ccc(NC(=O)Nc2cc(C(C)(C)C)on2)cc1 [Compound 20, 1-(5-tert-butyl-isoxazol-3-yl)-3-{4-[5-(2-dimethylamino-ethoxyl)-benzimidazol-1-yl]-phenyl}-urea] | > 1 µM | > 1 µM | 0.0001 to 0.001 µM | > 1 µM | 0.0001 to 0.001 µM | > 1 µM | > 1 µM | > 1 µM | > 1 µM | > 1 µM
2 | CC(C)(C)c1cc(NC(=O)Nc2ccc(-n3cnc4cc(OC(F)(F)F)ccc43)cc2)no1 [Compound 21, 1-(5-tert-butyl-isoxazol-3-yl)-3-[4-(5-trifluoromethoxy-benzimidazol-1-yl)-phenyl]-urea] | > 1 µM | > 1 µM | 0.0001 to 0.001 µM | > 1 µM | 0.0001 to 0.001 µM | > 1 µM | > 1 µM | > 1 µM | > 1 µM | > 1 µM
3 | CC(C)(C)c1cc(NC(=O)Nc2ccc(-n3cnc4cc(F)ccc43)cc2)no1 [Compound 22, 1-(5-tert-butyl-isoxazol-3-yl)-3-[4-(5-fluoro-benzimidazol-1-yl)-phenyl]-urea] | > 1 µM | > 1 µM | 0.0001 to 0.001 µM | > 1 µM | 0.0001 to 0.001 µM | > 1 µM | > 1 µM | > 1 µM | > 1 µM | > 1 µM
4 | CC(C)(C)c1cc(NC(=O)Nc2ccc(-n3cnc4cc(C(F)(F)F)ccc43)cc2)no1 [Compound 23, 1-(5-tert-butyl-isoxazol-3-yl)-3-[4-(5-trifluoromethyl-benzimidazol-1-yl)-phenyl]-urea] | 0.1 to 1 µM | 0.1 to 1 µM | 0.001 to 0.01 µM | > 1 µM | 0.001 to 0.01 µM | > 1 µM | > 1 µM | > 1 µM | > 1 µM | > 1 µM
5 | Cc1ccc2c(c1)ncn2-c1ccc(NC(=O)Nc2cc(C(C)(C)C)on2)cc1 [Compound 24, 1-(5-tert-butyl-isoxazol-3-yl)-3-[4-(5-methyl-benzimidazol-1-yl)-phenyl]-urea] | 0.1 to 1 µM | 0.1 to 1 µM | 0.001 to 0.01 µM | > 1 µM | 0.001 to 0.01 µM | > 1 µM | > 1 µM | > 1 µM | > 1 µM | > 1 µM
6 | COc1ccc2ncn(-c3ccc(NC(=O)Nc4cc(C(C)(C)C)on4)cc3)c2c1 [Compound 25, 1-(5-tert-butyl-isoxazol-3-yl)-3-[4-(6-methoxyl-benzimidazol-1-yl)-phenyl]-urea] | > 1 µM | > 1 µM | 0.0001 to 0.001 µM | > 1 µM | 0.0001 to 0.001 µM | > 1 µM | > 1 µM | > 1 µM | > 1 µM | > 1 µM
7 | COCCOc1ccc2ncn(-c3ccc(NC(=O)Nc4cc(C(C)(C)C)on4)cc3)c2c1 [Compound 26, 1-(5-tert-butyl-isoxazol-3-yl)-3-{4-[6-(2-methoxyl-ethoxyl)-benzimidazol-1-yl]-phenyl]urea] | 0.1 to 1 µM | 0.1 to 1 µM | 0.0001 to 0.001 µM | > 1 µM | 0.0001 to 0.001 µM | > 1 µM | > 1 µM | > 1 µM | > 1 µM | > 1 µM
8 | CN(C)CCN(C)c1ccc2ncn(-c3ccc(NC(=O)Nc4cc(C(C)(C)C)on4)cc3)c2c1 [Compound 28, 1-(5-tert-butyl-isoxazol-3-yl)-3-(4-{6-[(2-dimethylamino-ethyl)-methyl-amino]-benzimidazol-1-yl}-phenyl)-urea] | > 1 µM | > 1 µM | 0.001 to 0.01 µM | > 1 µM | 0.001 to 0.01 µM | > 1 µM | > 1 µM | > 1 µM | > 1 µM | > 1 µM
9 | CN1CCN(c2ccc3ncn(-c4ccc(NC(=O)Nc5cc(C(C)(C)C)on5)cc4)c3c2)CC1 [Compound 29, 1-(5-tert-butyl-isoxazol-3-yl)-3-{4-[6-(4-methyl-piperazin-1-yl)-benzimidazol-1-yl]-phenyl}-urea] | > 1 µM | > 1 µM | 0.01 to 0.1 µM | > 1 µM | 0.01 to 0.1 µM | > 1 µM | > 1 µM | > 1 µM | > 1 µM | > 1 µM
10 | CC(C)(C)c1cc(NC(=O)Nc2ccc(-n3cnc4cccc(OCCN5CCOCC5)c43)cc2)no1 [Compound 30, 1-(5-tert-butyl-isoxazol-3-yl)-3-{4-[7-(2-morpholin-4-yl-ethoxyl)-benzimidazol-1-yl]-phenyl}-urea] | > 1 µM | > 1 µM | > 1 µM | > 1 µM | > 1 µM | 0.1 to 1 µM | > 1 µM | > 1 µM | > 1 µM | > 1 µM
